{"source": "DBAASP", "assay_in_all_cases": "≥ marks a high value that may be exact or a test limit, other limits are often not marked, values filed in µg/mL are converted to µM", "key": {"[1]": {"test_system": "Candida albicans ATCC 10261"}, "[2]": {"test_system": "Yersinia enterocolitica O:9 96-C"}, "Candida albicans SC5314": {"test_system": "Candida albicans SC5314"}, "Klebsiella pneumoniae": {"test_system": "Klebsiella pneumoniae"}, "[3]": {"test_system": "Pseudomonas aeruginosa ATCC 27853"}, "Serratia marcescens": {"test_system": "Serratia marcescens"}, "[4]": {"test_system": "Bacillus licheniformis X39"}, "[5]": {"test_system": "Staphylococcus carnosus KHS"}, "Serratia rubidaea X01": {"test_system": "Serratia rubidaea X01"}, "[6]": {"test_system": "Candida albicans ATCC 2002"}, "[7]": {"test_system": "Rhodococcus rhodochrous X15"}, "[8]": {"test_system": "Psychrobacter faecalis X29"}, "[9]": {"test_system": "Staphylococcus aureus ATCC 2592"}, "Escherichia coli O157:H7": {"test_system": "Escherichia coli O157:H7"}, "[10]": {"test_system": "Staphylococcus aureus 1056"}, "[11]": {"test_system": "Acinetobacter baumannii ATCC 19606"}, "[12]": {"test_system": "Bordetella bronchiseptica CUN 11844-99"}, "[13]": {"test_system": "Staphylococcus aureus ΔmprFpRBsyn"}, "[14]": {"test_system": "Pseudomonas aeruginosa CUN 4158-02"}, "[15]": {"test_system": "Escherichia coli ATCC 23716"}, "Yersinia pestis KIM pYV": {"test_system": "Yersinia pestis KIM pYV"}, "[16]": {"test_system": "Staphylococcus aureus ΔmprF"}, "[17]": {"test_system": "Staphylococcus aureus ATCC 43300"}, "[18]": {"test_system": "Escherichia coli ATCC 25922"}, "Staphylococcus aureus": {"test_system": "Staphylococcus aureus"}, "[19]": {"test_system": "Brucella abortus 9.49 (per-)"}, "[20]": {"test_system": "Staphylococcus aureus SA113"}, "[21]": {"test_system": "Ureaplasma urealyticum strain 1"}, "[22]": {"test_system": "Ureaplasma urealyticum strain 2"}, "[23]": {"test_system": "Staphylococcus aureus 28841"}, "[24]": {"test_system": "Pseudomonas aeruginosa SBI-N"}, "[25]": {"test_system": "Pseudomonas aeruginosa MR3007"}, "Escherichia coli BAS 849": {"test_system": "Escherichia coli BAS 849"}, "[26]": {"test_system": "Staphylococcus aureus 30371"}, "[27]": {"test_system": "Salmonella enterica subsp. enterica serovar Typhimurium ATCC 14028s"}, "[28]": {"test_system": "Pseudomonas aeruginosa MR2123"}, "Enterococcus faecium": {"test_system": "Enterococcus faecium"}, "[29]": {"test_system": "Listeria monocytogenes EGD"}, "[30]": {"test_system": "Salmonella enterica serovar typhimurium MS7953s"}, "[31]": {"test_system": "Enterococcus faecalis CDC 21"}, "Escherichia coli mcr106": {"test_system": "Escherichia coli mcr106"}, "[32]": {"test_system": "Enterococcus faecium 94-132"}, "[33]": {"test_system": "Staphylococcus aureus 930918-3"}, "Escherichia coli ML-35p": {"test_system": "Escherichia coli ML-35p"}}, "note": "“And” between values parts separate entries of the source, which are not always exact repeats. Identical values can stand only once."}
{"compound": "CC[C@H](C)[C@H](NC(=O)[C@H](C)NC(=O)[C@@H](NC(=O)[C@H](Cc1cnc[nH]1)NC(=O)[C@@H]1CCCN1C(=O)[C@H](CC(C)C)NC(=O)[C@@H](NC(=O)[C@H](C)NC(=O)[C@H](CCCN=C(N)N)NC(=O)CNC(=O)[C@@H](NC(=O)[C@H](CCCN=C(N)N)NC(=O)[C@H](C)NC(=O)[C@@H](NC(=O)[C@@H](NC(=O)[C@H](CCCN=C(N)N)NC(=O)[C@@H](NC(=O)[C@H](C)NC(=O)[C@H](CO)NC(=O)[C@H](CCCN=C(N)N)NC(=O)[C@H](CC(C)C)NC(=O)[C@H](C)N)C(C)C)[C@@H](C)O)C(C)C)C(C)C)C(C)C)C(C)C)C(N)=O", "note": "[ALRSAVRTVARVGRAVLPHVAI]", "values": [{"measurement": "MIC", "setting": "[1]", "value": "6.3 µM and 3.1 µM"}, {"measurement": "MIC", "setting": "[2]", "value": "3.1 µM and 1.6 µM"}, {"measurement": "MIC", "setting": "Candida albicans SC5314", "value": "6.3 µM and 3.1 µM"}, {"measurement": "MIC", "setting": "Klebsiella pneumoniae", "value": "> 25 µM and 12.5 µM"}, {"measurement": "MIC", "setting": "[3]", "value": "12.5 µM and 6.3 µM"}, {"measurement": "MIC", "setting": "Serratia marcescens", "value": 25, "unit": "µM"}]}
{"compound": "CC[C@H](C)[C@H](NC(=O)[C@H](CCC(=O)O)NC(=O)[C@H](CCCCN)NC(=O)[C@H](C)NC(=O)[C@H](C)NC(=O)[C@@H](NC(=O)[C@H](CCCCN)NC(=O)CNC(=O)[C@H](Cc1ccccc1)NC(=O)[C@H](CC(=O)O)NC(=O)[C@H](CCCCN)NC(=O)[C@H](CC(C)C)NC(=O)[C@@H](NC(=O)[C@H](CO)NC(=O)[C@H](CCSC)NC(=O)[C@H](CC(C)C)NC(=O)CN)[C@@H](C)O)[C@@H](C)O)C(=O)N[C@@H](C)C(=O)N[C@@H](CCC(N)=O)C(=O)N[C@@H](CO)C(=O)N[C@@H](CC(C)C)C(=O)N[C@@H](CC(C)C)C(=O)N[C@@H](CO)C(=O)N[C@H](C(=O)N[C@@H](C)C(=O)N[C@@H](CO)C(=O)N[C@H]1CSSC[C@@H](C(=O)O)NC(=O)[C@H]([C@@H](C)O)NC(=O)[C@H](CCCCN)NC(=O)[C@H](C)NC(=O)[C@H](CC(C)C)NC(=O)[C@H](CCCCN)NC1=O)[C@@H](C)O", "note": "[GLMSTLKDFGKTAAKEIAQSLLSTASCKLAKTC]", "values": [{"measurement": "MIC", "setting": "[4]", "value": 14.6, "unit": "µM"}, {"measurement": "MIC", "setting": "[5]", "value": 1.84, "unit": "µM"}, {"measurement": "MIC", "setting": "Serratia rubidaea X01", "value": 29.3, "unit": "µM"}, {"measurement": "MIC", "setting": "[6]", "value": "≥ 58.5", "unit": "µM"}, {"measurement": "MIC", "setting": "[7]", "value": 0.468, "unit": "µM"}, {"measurement": "MIC", "setting": "[8]", "value": 1.84, "unit": "µM"}, {"measurement": "MIC", "setting": "[9]", "value": 3.66, "unit": "µM"}]}
{"compound": "CC[C@H](C)[C@H](N)C(=O)N1CCC[C@H]1C(=O)N[C@@H](CCCN=C(N)N)C(=O)N1CCC[C@H]1C(=O)N[C@@H](CC(C)C)C(=O)N[C@@H](CC(=O)O)C(=O)N1CCC[C@H]1C(=O)N[C@H]1CSSC[C@@H]2NC(=O)[C@H](CO)NC(=O)[C@H](CCCCN)NC(=O)CNC(=O)[C@H](CC(N)=O)NC(=O)[C@H](CCCN=C(N)N)NC(=O)[C@@H]3CSSC[C@H](NC(=O)[C@H](CCCN=C(N)N)NC(=O)CNC(=O)[C@H](CC(N)=O)NC(=O)[C@H](CCC(N)=O)NC(=O)[C@H](C)NC(=O)[C@H]([C@@H](C)CC)NC1=O)C(=O)N[C@@H](Cc1ccccc1)C(=O)N[C@@H]([C@@H](C)O)C(=O)NCC(=O)N[C@@H]([C@@H](C)CC)C(=O)N[C@@H](CSSC[C@@H](C(=O)N[C@@H](CCCN=C(N)N)C(=O)N[C@@H](CCCN=C(N)N)C(=O)N[C@@H](CCCN=C(N)N)C(=O)O)NC2=O)C(=O)N[C@@H](CCCN=C(N)N)C(=O)N[C@@H](Cc1ccc(O)cc1)C(=O)N1CCC[C@H]1C(=O)N[C@@H](Cc1ccc(O)cc1)C(=O)N[C@@H](Cc1ccccc1)C(=O)N[C@@H](Cc1c[nH]c2ccccc12)C(=O)N[C@@H]([C@@H](C)CC)C(=O)NCC(=O)N[C@@H]([C@@H](C)O)C(=O)N3", "note": "[IPRPLDPCIAQNGRCFTGICRYPYFWIGTCRNGKSCCRRR]", "values": [{"measurement": "MIC", "setting": "Escherichia coli O157:H7", "value": 0.515, "unit": "µM"}, {"measurement": "MIC", "setting": "[10]", "value": 0.594, "unit": "µM"}]}
{"compound": "CC[C@H](C)[C@H](NC(=O)[C@H](CCCN=C(N)N)NC(=O)[C@H](CCCCN)NC(=O)[C@H](CO)NC(=O)[C@@H](NC(=O)[C@@H](N)CCCCN)[C@@H](C)CC)C(=O)N[C@@H](CC(C)C)C(=O)N[C@H](C(=O)NCC(=O)N[C@@H](CCCCN)C(=O)N[C@@H](CCCCN)C(N)=O)[C@@H](C)O", "note": "[KISKRILTGKK]", "values": [{"measurement": "MIC", "setting": "[11]", "value": "> 201", "unit": "µM"}, {"measurement": "MIC", "setting": "[12]", "value": "≥ 201", "unit": "µM"}, {"measurement": "MIC", "setting": "[13]", "value": "≥ 201", "unit": "µM"}, {"measurement": "MIC", "setting": "[14]", "value": "≥ 201", "unit": "µM"}, {"measurement": "MIC", "setting": "[15]", "value": "≥ 201", "unit": "µM"}, {"measurement": "MIC", "setting": "Yersinia pestis KIM pYV", "value": "≥ 201", "unit": "µM"}, {"measurement": "MIC", "setting": "[16]", "value": "≥ 201", "unit": "µM"}, {"measurement": "MIC", "setting": "[17]", "value": "> 201", "unit": "µM"}, {"measurement": "MIC", "setting": "[18]", "value": "> 201", "unit": "µM"}, {"measurement": "MIC", "setting": "Staphylococcus aureus", "value": "> 201", "unit": "µM"}, {"measurement": "MIC", "setting": "[19]", "value": "≥ 201", "unit": "µM"}, {"measurement": "MIC", "setting": "[20]", "value": "≥ 201", "unit": "µM"}]}
{"compound": "CC[C@H](C)[C@H](NC(=O)[C@H](CCSC)NC(=O)[C@H](CC(=O)O)NC(=O)[C@@H](NC(=O)[C@H](CCSC)NC(=O)[C@H](Cc1ccccc1)NC(=O)[C@H](CC(N)=O)NC(=O)[C@H](Cc1ccccc1)NC(=O)CNC(=O)[C@H](CCCCN)NC(=O)[C@H](CC(N)=O)NC(=O)[C@H](CO)NC(=O)[C@@H](N)CCCN=C(N)N)C(C)C)C(=O)N[C@@H](CCC(N)=O)C(=O)N[C@@H](C)C(=O)N[C@@H](CC(C)C)C(=O)N[C@@H](CO)C(=O)N[C@@H](CCCCN)C(N)=O", "note": "[RSNKGFNFMVDMIQALSK]", "values": [{"measurement": "MIC", "setting": "[21]", "value": "≥ 46", "unit": "µM"}, {"measurement": "MIC", "setting": "[22]", "value": "≥ 46", "unit": "µM"}]}
{"compound": "CC[C@H](C)[C@H](NC(=O)[C@H](CCCCN)NC(=O)CNC(=O)[C@H](CC(C)C)NC(=O)[C@H](Cc1ccccc1)NC(=O)[C@H](CCC(N)=O)NC(=O)[C@H](Cc1ccccc1)NC(=O)[C@@H](N)C(C)C)C(=O)N[C@H](C(=O)N[C@@H](CCCCN)C(=O)N[C@@H](CCCCN)C(=O)N[C@H](C(=O)NCC(=O)N[C@@H](CC(N)=O)C(=O)N[C@@H](Cc1ccccc1)C(=O)N[C@H](C(=O)N[C@@H](CCCCN)C(=O)NCC(=O)N[C@@H](Cc1ccccc1)C(=O)N[C@@H](CO)C(=O)N[C@@H](CCCCN)C(=O)N[C@H](C(=O)N[C@@H](Cc1ccccc1)C(=O)O)C(C)C)C(C)C)C(C)C)[C@@H](C)CC", "note": "[VFQFLGKIIKKVGNFVKGFSKVF]", "values": [{"measurement": "MIC", "setting": "[23]", "value": 0.95, "unit": "µM"}, {"measurement": "MIC", "setting": "[24]", "value": 0.342, "unit": "µM"}, {"measurement": "MIC", "setting": "[25]", "value": 0.342, "unit": "µM"}, {"measurement": "MIC", "setting": "Escherichia coli BAS 849", "value": 0.266, "unit": "µM"}, {"measurement": "MIC", "setting": "[26]", "value": 2.2, "unit": "µM"}, {"measurement": "MIC", "setting": "[27]", "value": 0.57, "unit": "µM"}, {"measurement": "MIC", "setting": "Klebsiella pneumoniae", "value": 1.06, "unit": "µM"}, {"measurement": "MIC", "setting": "[28]", "value": 0.266, "unit": "µM"}, {"measurement": "MIC", "setting": "Enterococcus faecium", "value": 0.19, "unit": "µM"}, {"measurement": "MIC", "setting": "[29]", "value": 0.152, "unit": "µM"}, {"measurement": "MIC", "setting": "[30]", "value": 0.494, "unit": "µM"}, {"measurement": "MIC", "setting": "[31]", "value": 0.988, "unit": "µM"}, {"measurement": "MIC", "setting": "Escherichia coli mcr106", "value": 0.266, "unit": "µM"}, {"measurement": "MIC", "setting": "[32]", "value": 0.114, "unit": "µM"}, {"measurement": "MIC", "setting": "[33]", "value": 1.48, "unit": "µM"}, {"measurement": "MIC", "setting": "Escherichia coli ML-35p", "value": 0.494, "unit": "µM"}]}
